Measurements: patent publication US20040010116A1, “Minicell display and products therefrom” (Children's Medical Center Corp., priority 2002, published 2004)
Each block holds one substance with its values, some of them ahead of it. Where no end group is shown, it is not given here.

Experiments:
[1] = biological target: T1, alpha4 integrin (Homo sapiens, UniProt P13612); assay: alpha4 integrin binding
T1 sequence (P13612 34-1032): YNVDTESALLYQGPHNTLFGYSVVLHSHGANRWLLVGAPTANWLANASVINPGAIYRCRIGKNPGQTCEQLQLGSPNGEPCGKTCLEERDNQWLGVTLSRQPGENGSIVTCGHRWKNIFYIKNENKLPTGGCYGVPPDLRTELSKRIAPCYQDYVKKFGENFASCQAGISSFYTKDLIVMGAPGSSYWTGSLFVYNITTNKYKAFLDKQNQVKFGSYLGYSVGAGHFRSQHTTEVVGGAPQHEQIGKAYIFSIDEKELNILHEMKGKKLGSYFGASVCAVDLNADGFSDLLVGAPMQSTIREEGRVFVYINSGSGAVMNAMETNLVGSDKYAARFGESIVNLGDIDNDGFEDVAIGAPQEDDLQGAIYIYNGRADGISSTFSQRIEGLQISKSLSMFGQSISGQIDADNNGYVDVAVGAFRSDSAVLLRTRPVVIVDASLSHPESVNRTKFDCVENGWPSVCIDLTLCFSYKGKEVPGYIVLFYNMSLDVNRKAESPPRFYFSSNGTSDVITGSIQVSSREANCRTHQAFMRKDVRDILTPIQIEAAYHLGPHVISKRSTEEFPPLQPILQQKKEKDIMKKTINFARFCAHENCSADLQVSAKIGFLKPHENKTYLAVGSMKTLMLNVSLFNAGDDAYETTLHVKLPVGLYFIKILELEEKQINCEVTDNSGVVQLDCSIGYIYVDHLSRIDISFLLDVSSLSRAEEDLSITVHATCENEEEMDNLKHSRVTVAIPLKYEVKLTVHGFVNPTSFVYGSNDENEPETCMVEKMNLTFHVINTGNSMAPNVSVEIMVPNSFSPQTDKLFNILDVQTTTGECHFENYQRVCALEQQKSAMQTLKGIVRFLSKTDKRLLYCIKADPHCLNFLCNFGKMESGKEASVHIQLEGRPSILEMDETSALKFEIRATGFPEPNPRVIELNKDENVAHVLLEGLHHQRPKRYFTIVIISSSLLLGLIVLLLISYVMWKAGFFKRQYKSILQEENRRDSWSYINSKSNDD
From the text: (§1) Several screening methods were utilized. Most of the methods follow a similar protocol outlined below.
(§2) A tertiary library may be constructed from a third round of screening and those peptides selected may be used in functional screening assays to further isolate peptides of specific activity.

[2] = test system: tumor cells; assay: Apoptosis of tumor cells; format: cell-based
From the text: as §1, §2

[3] = test system: Endothelial cell; assay: Endothelial cell attachment; format: cell-based
From the text: as §1, §2

[4] = test system: eosinophils; assay: Activation of apoptosis in eosinophils; format: cell-based; conditions: versus control
From the text: SEQ ID NO: 56 (Acetylated-GRGENPS) activates apoptosis in eosinophils. […] Fibronectin in combination with SEQ ID NO: 56 further increased the percentage of apoptotic cells by roughly 70%.

[5] = test system: tumor cells; assay: Homotypic aggregation of tumor cells; format: cell-based
From the text: as §1, §2

[6] = Tolerability of the peptide in animals; format: in vivo
Description: To evaluate that effectiveness of SEQ ID NO: 54 against primary tumor growth and metastasis, 1×10^7 cells were injected subcutaneously into the left flank of nude mice. After six weeks the resulting tumors were aseptically dissected out, minced and 1 mm-tumor pieces were transplanted into the right flank of nude mice using a trocar needle. Two weeks later, when tumors were measured approximately 10 mm, mice were assigned to different experimental groups. One group of 24 animals bearing MDA-MB-231 xenografts were divided into 3 groups that received the following treatments one group of 8 animals received a weekly injection of apoptotic peptide (0.3-100 μg/kg for SEQ ID NO: 54) through the peritoneal cavity. […] Tumors were measured once every two days with microcalipers, and tumor volume was calculated as length×width×height×0.5236. Body weights were measured on the day of the injection, 4 days later and weekly thereafter. […] Total leukocyte and platelet counts were determined manually using a hemocytometer. […] Treatment-related toxicity was evaluated based on the differences in body weight, liver and kidney marker enzymes and the hematological parameters between treatment groups. […] Liver, heart, uterus, ovaries, lungs spinal cord and all long bones were evaluated histologically. […]

[7] = test system: macrophage; assay: Macrophage recruitment by osteopontin, C5a, fibronectin (activity assay of minicell display peptides); format: cell-based
From the text: as §1, §2

[8] = test system: cell/collagen interaction; assay: Cell/collagen interaction; format: cell-based
From the text: as §1, §2

[9] = test system: β integrin; assay: β integrin binding
From the text: as §1, §2

[10] = Heparin binding
From the text: as §1, §2

[11] = biological target: CD44 (Homo sapiens, UniProt P16070); assay: CD44 interaction with GAG; format: binding
From the text: as §1, §2

[12] = test system: neutrophils, endothelium, fibrosarcomas melanoma; assay: Neutrophils, endothelium, fibrosarcomas, melanoma attachment; format: cell-based
From the text: as §1, §2

[13] = Induction of apoptosis and cell death; format: cell-based
[14] = test system: integrin signaling, CD44 signaling, rhoB; assay: Integrin/CD44 signaling and microtubule stabilization in vivo
[15] = test system: invasion complex; assay: Invasion complex binding, in vitro studies
From the text: SEQ ID NO: 55 ([…] is a peptide derived and modified from a parent peptide isolated using minicell display. The design objective for the parent peptide was to generate a mini protein with the mechanistic advantages of taxol, but devoid of the toxicity and side effects of taxol-type drugs.

[16] = test system: melanoma cell; assay: Melanoma cell attachment; format: cell-based
From the text: as §1, §2

[17] = test system: cell-cell; assay: Cell-cell adhesion; format: cell-based
From the text: as §1, §2

[18] = test system: collagenase; assay: Collagenase induction; format: cell-based
From the text: as §1, §2

[19] = test system: fibroblast; assay: Fibroblast attachment; format: cell-based
From the text: as §1, §2

[20] = test system: cell; assay: Cell entry of peptides; format: cell-based
From the text: as §1, §2

Sequence of CD44 (P16070 21-742, species assumed): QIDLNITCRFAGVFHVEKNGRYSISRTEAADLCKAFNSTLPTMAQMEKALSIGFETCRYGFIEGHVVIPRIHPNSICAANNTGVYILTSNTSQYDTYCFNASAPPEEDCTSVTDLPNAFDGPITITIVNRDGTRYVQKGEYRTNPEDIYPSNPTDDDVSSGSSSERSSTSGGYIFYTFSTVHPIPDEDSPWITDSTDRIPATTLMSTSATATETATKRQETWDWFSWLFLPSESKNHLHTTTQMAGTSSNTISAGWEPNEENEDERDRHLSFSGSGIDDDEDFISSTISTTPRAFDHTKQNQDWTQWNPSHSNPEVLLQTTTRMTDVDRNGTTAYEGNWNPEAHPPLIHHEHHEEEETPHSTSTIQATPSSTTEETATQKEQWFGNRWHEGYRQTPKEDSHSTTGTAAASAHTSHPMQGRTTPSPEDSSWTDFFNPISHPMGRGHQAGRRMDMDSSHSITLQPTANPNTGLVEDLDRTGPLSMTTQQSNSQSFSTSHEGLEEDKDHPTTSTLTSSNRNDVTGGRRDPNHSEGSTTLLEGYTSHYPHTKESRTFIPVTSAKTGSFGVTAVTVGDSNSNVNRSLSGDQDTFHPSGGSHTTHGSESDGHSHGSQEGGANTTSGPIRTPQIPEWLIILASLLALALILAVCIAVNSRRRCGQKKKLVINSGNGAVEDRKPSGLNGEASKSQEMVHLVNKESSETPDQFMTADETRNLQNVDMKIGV

FUNCTIONAL ACTIVITY: alpha4 integrin binding [1]: Inhibits alpha4 integrin
Substance: LDSPPAALS [SEQ ID NO:21]

FUNCTIONAL ACTIVITY: alpha4 integrin binding [1]: Inhibits alpha4 integrin
Substance: WTGGDDSGSPSSPS [SEQ ID NO:23]

Substance: KRSR [SEQ ID NO:53]
FUNCTIONAL ACTIVITY: Apoptotic to tumor cells [2]: Apoptotic to tumor cells

Substance: VLPTPTPPGYLSSRSSR [SEQ ID NO:42]
FUNCTIONAL ACTIVITY: endothelial cell attachment [3]: Inhibits endothelial cell

Substance: Acetylated-GRGENPS (Ac-GRGENPS) [SEQ ID NO: 56]
Increase of the percentage of apoptotic cells [4]: roughly 20%

Substance: HGRFILPWWYAFSPS [SEQ ID NO:48]
FUNCTIONAL ACTIVITY: homotypic aggregation of tumor cells [5]: Inhibit homotypic aggregation

Substance: Ac-DKMLDP [SEQ ID NO: 54, DKMLDP]
Therapeutic index [6]: high
Tolerability of relatively high doses ([6]; more than ten fold the optimum effective dose): no deleterious effects

Substance: VLEP [SEQ ID NO:7]
FUNCTIONAL ACTIVITY: macrophage recruitment by osteopontin, C5a, fibronectin [7]: Inhibitor of macrophage

Substance: DPGYIGSR [SEQ ID NO:41]
FUNCTIONAL ACTIVITY: endothelial cell attachment [3]: Inhibits endothelial cell

Substance: DADQKFGFC [SEQ ID NO:12]
FUNCTIONAL ACTIVITY: cell/collagen interaction [8]: Inhibits cell/collagen

FUNCTIONAL ACTIVITY: β integrin binding [9]: β integrin binding
Substance: TPVVPTVDTYDGRGDSLAY [SEQ ID NO:27]

Substance: fibronectin [reference compound]
Change of the percentage of apoptotic cells (in words) [4]: decreased the percentage of apoptotic cells

FUNCTIONAL ACTIVITY: heparin binding [10]: Inhibits heparin binding
Substance: DSVAYGLKSRSK [SEQ ID NO:16]

FUNCTIONAL ACTIVITY: alpha4 integrin binding [1]: Inhibits alpha4 integrin
Substance: AADVESPS [SEQ ID NO:22]

FUNCTIONAL ACTIVITY: CD44 interaction with GAG [11]: Inhibits CD44 interaction with
Substance: KNNQKSEPLIGRKKT [SEQ ID NO:43]

Substance: KGMNYTVR [SEQ ID NO:40]
FUNCTIONAL ACTIVITY: neutrophils, endothelium, fibrosarcomas melanoma attachment [12]: Inhibits, neutrophils,

Substance: PYAGRGDSVVYGLKKKNNQKAEPLIGRKKTR [SEQ ID NO: 55]
Apoptosis and cell death [13]: induces apoptosis and cell death
Integrin signaling versus CD44 signaling [14]: uncouple integrin signaling from CD44 signaling
Microtubules ([14]; by down stream activation of rhoB): stabilization of microtubules
Binding to the invasion complex [15]: binds to the invasion complex

Substance: DRYLKFRPV [SEQ ID NO:38]
FUNCTIONAL ACTIVITY: melanoma cell attachment [16]: Inhibits melanoma cell

FUNCTIONAL ACTIVITY: heparin binding [10]: Inhibits heparin binding
Substance: DSVAYGLKSK [SEQ ID NO:15]

FUNCTIONAL ACTIVITY: alpha4 integrin binding [1]: Inhibits alpha4 integrin
Substance: EPEESDVGGAADYP [SEQ ID NO:25]

Substance: RRSRSSTGKKQKSSQSRKTA [SEQ ID NO:51]
FUNCTIONAL ACTIVITY: Anti-adhesion (cell-cell) [17]: Anti-adhesion (cell-cell)

Substance: DQDQRWGYC [SEQ ID NO:9]
FUNCTIONAL ACTIVITY: cell/collagen interaction [8]: Inhibits cell/collagen

Substance: DDDRKWGFC [SEQ ID NO:8]
FUNCTIONAL ACTIVITY: cell/collagen interaction [8]: Inhibits cell/collagen

Substance: DRQWGLC [SEQ ID NO:11]
FUNCTIONAL ACTIVITY: cell/collagen interaction [8]: Inhibits cell/collagen

Substance: HKFVHWKKPVLPSQNNQ [SEQ ID NO:39]
FUNCTIONAL ACTIVITY: melanoma cell attachment [16]: Inhibits melanoma cell

FUNCTIONAL ACTIVITY: alpha4 integrin binding [1]: Inhibits alpha4 integrin
Substance: SDV [SEQ ID NO:24]

FUNCTIONAL ACTIVITY: alpha4 integrin binding [1]: Inhibits alpha4 integrin
Substance: QESPSGTDLLVAGSSP [SEQ ID NO:26]

Substance: DRDRAWGYC [SEQ ID NO:10]
FUNCTIONAL ACTIVITY: cell/collagen interaction [8]: Inhibits cell/collagen

FUNCTIONAL ACTIVITY: CD44 interaction with GAG [11]: Inhibits CD44 interaction with
Substance: YYWRQQQKSDPVVSRRRSPS [SEQ ID NO:44]

Substance: GRGDNPS [SEQ ID NO:35]
FUNCTIONAL ACTIVITY: collagenase induction [18]: collagenase induction

FUNCTIONAL ACTIVITY: alpha4 integrin binding [1]: Inhibits alpha4 integrin
Substance: LDSAS [SEQ ID NO:20]

Substance: KKGKKSKRS [SEQ ID NO:50]
FUNCTIONAL ACTIVITY: Anti-adhesion (cell-cell) [17]: Anti-adhesion (cell-cell)

FUNCTIONAL ACTIVITY: heparin binding [10]: Inhibits heparin binding
Substance: DSVVYGLRSK [SEQ ID NO:14]

Substance: PNGRGESLAY [SEQ ID NO:37]
FUNCTIONAL ACTIVITY: collagenase induction [18]: inhibits collagenase induction
FUNCTIONAL ACTIVITY: fibroblast attachment [19]: Inhibits fibroblast attachment,

Substance: LVPSSKGRGDYLAQSQP [SEQ ID NO:36]
FUNCTIONAL ACTIVITY: collagenase induction [18]: collagenase induction

Substance: ESHQKYGYCGGCDRNNP [SEQ ID NO:13]
FUNCTIONAL ACTIVITY: cell/collagen interaction [8]: Inhibits cell/collagen

Substance: CVVVLVL [SEQ ID NO: 19]
FUNCTIONAL ACTIVITY: cell entry of peptides [20]: Promotes cell entry of peptides

Substance: DGGRGDSLGWYRRGRGGARRSKAKKAAAKNNQKSEPLIGRKKT [SEQ ID NO:52]
FUNCTIONAL ACTIVITY: Apoptotic to tumor cells [2]: Apoptotic to tumor cells

Substance: KKAKKSRRS [SEQ ID NO:49]
FUNCTIONAL ACTIVITY: Anti-adhesion (cell-cell) [17]: Anti-adhesion (cell-cell)
